According to US8202910B2 (Sequella, Inc., priority 2006, dated 2012):
In brackets after ≈: the same amount, converted by molar mass. Several values for one entry are separate records, joined by “and”; a condition that tells them apart may be missing. Equal values may be shown once. Read-outs that look alike come from different tables or passages of the source.

Columns and labels:
[1] = Maximum tolerated dose, one-time gavage dose in mice; type: in vivo
Method: […] Each dose of each compound consisted of one group of 3 mice. Monitoring of the mice was done twice a day for the duration of the experiment. […] The MTD (mg/kg) is the highest dose that results in no lethality/tissue abnormality.
• 1. […] The compounds are dissolved in the appropriate concentration of ethanol in distilled water and administered in a volume of 0.2 ml per mouse. • 2. Observation of mice: Mice will be observed 4 and 6 hours post administration, then twice daily for one week. Survival and body weight of mice will be closely monitored throughout the study. • 3. […] Critical organs will be aseptically removed and observed; tissues from the liver, heart, and kidneys are extracted and placed into 10% formalin solution. These fixed tissues are sectioned and examined for abnormalities resulting from drug toxicity.

[2] = system: H37Rv strain of Mycobacterium tuberculosis; assay: microbe, parasite or virus in culture; type: cell-based
cells = assay: LD50 for selectivity index (Table 10); type: cell-based, Mycobacterium tuberculosis; settings: for SI (Selectivity Index): LD50 : MIC
Text: Table 10 lists MIC and LD50 data for selected compounds. […] Table 11 lists MIC data for purified substituted ethylene diamines in comparison to ethambutol (EMB).

[3] = type: in vitro ADME; settings: 6 h
Method: (§1) Initially, analytical methods for determination of the compounds had been developed that allowed to carry out all the PK experiments, sec FIG. 29. Here is a brief description of the experiment: (1) plasma spiked with tested compounds and 10 uL of Terfenadine or plasma samples (200 uL) added; (2) ACN (2 mL) added to precipitate protein and spin at 2,500 rpm; (3) evaporate supernatant to dryness; (4) add 200 uL of the diluting solvent: methanol (with 0.1% of trifluoroacetic acid): ammonium acetate (80/20); (5) vortex, spin, and use supernatant; (6) run LC/MS/MS on Sciex API 3000.
Biostability studies of the compounds in plasma were carried out using concentrations 1 and 15 mg/ml. The compounds were incubated for 1, 2, 3 & 6 hr at 37° C. (Table 18).

[4] = Toxicity, dose escalation study in mice
Method: Toxicity was assessed using a dose escalation study. This study was performed with ten C57BL/6 mice per candidate. Every two days, the mice were administered an increased concentration of the drug, and monitored for detrimental effects. The administration scheme was 50, 100, 200, 400, 600, 800 and 1000 mg/kg.

in vivo = assay: in vivo; parameters: species or system mice; settings: mouse
Method: as §1
Pilot PK study of the compounds 37, 59, and 109 in mice was conducted using a cassette dosing: all the three analogs were formulated together in saline at 1.5 mg/mL, and administered to mice simultaneously orally at 25 mg/kg, peritoneally at 6 mg/kg, and intravenously. […] Obtained data are presented on FIGS. 30, 31, and 32 (tested compounds were studied under the NCI′ indexation NSC) and summarized in Table 19.

[5] = system: monkey kidney cells (Vero); assay: In vitro toxicity, Vero cells; type: cell-based; settings: Primates
Method: Twenty six compounds (including 37, 59 and 109) were tested in an in vitro model of toxicity using monkey kidney cells (Vero) and human cervical cancer cells (HeLa) using methods well known to those skilled in the art. The data from this toxicity testing and the MIC data were used to calculate a selectivity index (SI), the ratio of IC50:MIC (Table 15). Selectivity Indexes were ranging from 1.76 to 16.67.

wild type of M.tb = assay: MIC, secondary screening, wild type; type: cell-based, Mycobacterium tuberculosis; settings: WT
M. tuberculosis H37Rv [6] = assay: In vivo efficacy, mice infected i.v. with M. tuberculosis, CFU in spleen and lungs; parameters: species or system C57BL/6 mice
M. tuberculosis H37Rv [7] = assay: Standard chronic mouse model of tuberculosis, CFU in lung; type: in vivo, C57BL/6 female mice; settings: INH+RIF+EMB at 25, 20 and 100 mg/kg, wk 4
[8] = system: M. tuberculosis H37Rv (Pasteur); assay: Rapid in vivo model of TB, body weight of infected mice; parameters: species or system C3H female mice; settings: Rif (2 mg/kg)-EMB (10 mg/kg) combination
[9] = system: RIF^R M. tuberculosis isolate 2482; assay: microbe, parasite or virus in culture; type: cell-based; settings: strain 2482
M. tuberculosis H37Rv [10] = assay: MIC by BACTEC 460; type: cell-based, Mycobacterium tuberculosis; settings: Mycobacterium tuberculosis, H37RV, reference in head of Table 11; read-out: BACTEC MIC of EMB
[11] = system: H37Rv strain of Mycobacterium tuberculosis; settings: background statement; cited from earlier work
[12] = system: RIF^R M. tuberculosis strain 2482; type: cell-based; settings: strain 2482
[13] = system: RIF^R M. tuberculosis strain 3185; type: cell-based; settings: strain 3185
[14] = system: RIF^R M. tuberculosis isolate 3185; assay: microbe, parasite or virus in culture; type: cell-based
[15] = Mycobacterium tuberculosis, H37RV, Table 10, from uM and MW, read-out: MIC
[16] = Mycobacterium tuberculosis, H37RV, Table 10, read-out: MIC
[17] = Mycobacterium tuberculosis, H37RV, Table 15, read-out: MIC
[18] = concentration at which 50% of the cells are killed
[19] = Mycobacterium tuberculosis, value in brackets, read-out: MIC (or uM)
[20] = Mycobacterium tuberculosis, EMB, RL241, Cmpd#59 as 2HCl salt, Cmpd#109 as 2CF3COOH salt, read-out: MIC

## CC1(C)C2CCC(CNCCNCC(c3ccccc3)c3ccccc3)[C@@H]1C2 (stereo partly drawn) [Compound 37, N-(2,2-Diphenylethyl)-N′-(−)-cis-(myrtanyl)ethane-1,2-diamine]
[1]; 37 at 100 mg/kg (Table 16)
  Day of death: 1
[1]; 37 at 100 mg/kg (Table 16), day 1
  Mice: 2 to 4 h
[1]; 37 at 100 mg/kg (Table 16), day 2
  Mice: 2
[1]; 37 at 100 mg/kg (Table 16), day 3
  Mice: 2
[1]; 37 at 100 mg/kg (Table 16), day 4
  Mice: 2
[1]; 37 at 100 mg/kg (Table 16), day 6
  Mice: 2
[1]; 37 at 100 mg/kg (Table 16), day 7
  Mice: 2
[1]; 37 at 100 mg/kg (Table 17), day 1
  Mice: 3
[1]; 37 at 100 mg/kg (Table 17), day 2
  Mice: 3
[1]; 37 at 100 mg/kg (Table 17), day 3
  Mice: 3
[1]; 37 at 100 mg/kg (Table 17), day 4
  Mice: 3
[1]; 37 at 100 mg/kg (Table 17), day 5
  Mice: 3
[1]; 37 at 100 mg/kg (Table 17), day 6
  Mice: 3
[1]; 37 at 100 mg/kg (Table 17), day 7
  Mice: 3
[1]; 37 at 300 mg/kg, day 1
  Mice: 3
[1]; 37 at 300 mg/kg, day 2
  Mice: 3
[1]; 37 at 300 mg/kg, day 3
  Mice: 3
[1]; 37 at 300 mg/kg, day 4
  Mice: 3
[1]; 37 at 300 mg/kg, day 5
  Mice: 3
[1]; 37 at 300 mg/kg, day 6
  Mice: 3
[1]; 37 at 300 mg/kg, day 7
  Mice: 3
[1]; mice surviving one week
  changes in organs: No visible changes in organs
[2]; [15]
  MIC: 7.75 µg/mL
[2]; [16]
  MIC: 15.6 µM
[2]; [17]
  MIC: 7.8 µM
cells
  SI (Selectivity Index): 2.048
cells; [18]
  LD50: 32 µM
cells; from uM and MW
  LD50: 15.872 µg/mL
[3]; dog
  Biostability in plasma (% ↓): stable
[3]; human
  Biostability in plasma (% ↓): 20% ↓
[3]; mouse
  Biostability in plasma (% ↓): stable
[3]; rat
  Biostability in plasma (% ↓): 35% ↓
[4]; C57BL/6, mouse, in vivo, 2 days
  fatal dose: 100 mg/kg
[4]; dose escalation
  toxic dose: 100 mg/kg
In vivo; ip, 6 mg/kg
  AUC: 1370 ng·h/mL
  Cmax: 630 ng/mL
  Urine excretion (%): <0.01%
  bioavailability: 72%
  half-life: 294 min
In vivo; iv, 3 mg/kg
  AUC: 954 ng·h/mL
  Cmax: 970 ng/mL
  Urine excretion (%): .71%
  clearance: 58.8 mL/min/kg
  half-life: 288 min
In vivo; po, 25 mg/kg
  AUC: 1600 ng·h/mL
  Cmax: 263 ng/mL
  bioavailability: 3.3%
[5]
  IC50: 32 µM

## C[C@@H]1[C@H]2C[C@@H](C[C@H]1NCCNC1CCCCCCC1)C2(C)C [Compound 59, N-(Cyclooctyl)-N′-(1R, 2R, 3R, 5S)-(−)-isopinocampheylethane-1,2-diamine]
[2]; [15]
  MIC: 6.66 µg/mL
[2]; [16]
  MIC: 15.6 µM
[2]; [17]
  MIC: 15.6 µM
cells
  SI (Selectivity Index): 2.048
cells; [18]
  LD50: 32 µM
cells; from uM and MW
  LD50: 13.632 µg/mL
[3]; dog
  Biostability in plasma (% ↓): stable
[3]; human
  Biostability in plasma (% ↓): stable
[3]; mouse
  Biostability in plasma (% ↓): stable
[3]; rat
  Biostability in plasma (% ↓): stable
[4]; C57BL/6, mouse, in vivo
  tolerated dose: 1000 mg/kg
In vivo
  PK profiling (AUC, Cmax): relatively poor PK profiling
In vivo; ip, 6 mg/kg
  AUC: 272 ng·h/mL
  Cmax: 217 ng/mL
  Urine excretion (%): <0.01%
  bioavailability: 35%
  half-life: 582 min
In vivo; iv, 3 mg/kg
  AUC: 384 ng·h/mL
  Cmax: 296 ng/mL
  Urine excretion (%): 1.9%
  clearance: 134 mL/min/kg
  half-life: 384 min
In vivo; po, 25 mg/kg
  AUC: 169 ng·h/mL
  Cmax: 28.7 ng/mL
  bioavailability: 0.9%
Wild type of M.tb; [19]
  MIC: 0.13 µM
Wild type of M.tb; [20]
  MIC: 0.05 µg/mL
[5]
  IC50: 36 µM
M. tuberculosis H37Rv [6]; 10 mg/kg, B6 mice, 5×10^5 CFU, chemotherapy from day 20
  anti-tuberculosis activity compared with EMB: comparable to that of EMB at 100 mg/kg

## CC[C@@H](CO)NCCN[C@@H](CC)CO [EMB, Ethambutol, reference compound]
M. tuberculosis H37Rv [7]
  CFU in lung: 3.7 log10CFU
[8]
  body weight of infected mice: No improvement
[2]
  MIC: 8.37 µM and 7.25 µM
[2]; Mycobacterium tuberculosis, H37RV, read-out: MIC
  MIC: 7.19 µM
[9]
  concentration to which the strain was susceptible: 2.5 mg/L
M. tuberculosis H37Rv [10]
  MIC: 2.5 µg/mL
[11]
  Minimum Inhibition Concentration (MIC): about 5 μg/ml
[12]
  interaction of 0.5 MIC ethambutol with rifampicin: did not show any additive or synergistic activity
[13]
  interaction of 0.5 MIC ethambutol with rifampicin: synergy was not observed
[14]; Mycobacterium tuberculosis, read-out: MIC (BACTEC)
  MIC: 2.5 µg/mL (≈ 12.2 µM)
[14]; strain 3185
  concentration to which the strain was susceptible: 2.5 mg/L
Wild type of M.tb; [19]
  MIC: 11.1 µM
Wild type of M.tb; [20]
  MIC: 3.12 µg/mL
Wild type of M.tb; EMB, RL241, Cmpd#59 as 2HCl salt, Cmpd#109 as 2CF3COOH salt
  MIC: 1.6 to 1.8 µg/mL
M. tuberculosis H37Rv [6]; during 4-6 weeks of chemotherapy
  decrease of load of bacteria in organs: 1.0-2.0 logs
